Reference: US5217960A, “Erythromycin derivatives” (priority 1991, dated 1993)
In brackets after ≈: the same amount, converted by molar mass. Read-outs that look alike come from different tables or passages of the source.

Experiments:
Format in all cases: cell-based
[1] = system: STAPHYLOCOCCUS EPIDERMIDIS 3519; assay: microbe, parasite or virus in culture
[2] = system: ENTEROBACTER AEROGENES ATCC 13048; assay: In vitro antibacterial activity, agar dilution MIC; details: Klebsiella aerogenes
[3] = system: STREPTOCOCCUS PYOGENES 930 CONST; assay: In vitro antibacterial activity, agar dilution MIC; details: S. pyogenes 930 CONST, BHI agar, 35-37° C., 20 to 24 hours, read-out: MIC
ESCHERICHIA COLI H560 = assay: In vitro antibacterial activity, agar dilution MIC
[4] = system: ACINETOBACTER CALCOACETICUS CMX 669; assay: In vitro antibacterial activity, agar dilution MIC; details: A. calcoaceticus CMX 669, BHI agar, 35-37° C., 20 to 24 hours
PSEUDOMONAS CEPACIA 296I = assay: In vitro antibacterial activity, agar dilution MIC; details: Burkholderia cepacia; P. cepacia 296I; BHI agar, 35-37° C., 20 to 24 hours; read-out: MIC
ESCHERICHIA COLI JUHL = assay: microbe, parasite or virus in culture; details: E. coli JUHL, BHI agar, 35-37° C., 20 to 24 hours, read-out: MIC
[5] = system: PROVIDENCIA STUARTII CMX 640; assay: microbe, parasite or virus in culture; details: P. stuartii CMX 640, BHI agar, 35-37° C., 20 to 24 hours
[6] = system: PSEUDOMONAS AERUGINOSA A5007; assay: In vitro antibacterial activity, agar dilution MIC; details: P. aeruginosa A5007, BHI agar, 35-37° C., 20 to 24 hours
[7] = system: STREPTOCOCCUS PYOGENES 2548 INDUC; assay: In vitro antibacterial activity, agar dilution MIC; details: 24 h
[8] = system: STAPHYLOCOCCUS AUREUS ATCC 6538P; assay: In vitro antibacterial activity, agar dilution MIC; details: ATCC6538P, 24 h
STR[…] 508 = assay: In vitro antibacterial activity, agar dilution MIC; details: Streptococcus agalactiae, 24 h
Protocol: (§1) Representative compounds of the present invention were assayed in vitro for antibacterial activity as follows: Twelve petri dishes containing successive aqueous dilutions of the test compound mixed with 10 ml of sterilized Brain Heart Infusion (BHI) agar (Difco 0418-01-5) were prepared. Each plate was inoculated with 1:100 (or 1:10 for slow-growing strains, such as Micrococcus and Streptococcus) dilutions of up to 32 different microorganisms, using a Steers replicator block. The inoculated plates were incubated at 35°-37° C. for 20 to 24 hours. In addition, a control plate, using BHI agar containing no test compound, was prepared and incubated at the beginning and end of each test.
(§2) An additional plate containing a compound having known susceptibility patterns for the organisms being tested and belonging to the same antibiotic class as the test compound was also prepared and incubated as a further control, as well as to provide test-to-test comparability. Erythromycin A was used for this purpose.
(§3) After incubation, each disk was read. The minimum inhibitory concentration (MIC) was defined as the lowest concentration of drug yielding no growth, a slight haze, or sparsely isolated colonies on the inoculum spot as compared to the growth control.

STR[…] EES61 = assay: In vitro antibacterial activity, agar dilution MIC; details: Streptococcus pyogenes, 24 h
Protocol: as §1, §2, §3

ESCHERICHIA COLI DC-2 = assay: In vitro antibacterial activity, agar dilution MIC
[9] = system: STAPHYLOCOCCUS AUREUS 1775; assay: In vitro antibacterial activity, agar dilution MIC; details: S. aureus 1775, BHI agar, 35-37° C., 20 to 24 hours, read-out: MIC
[10] = system: STAPHYLOCOCCUS AUREUS A5177; assay: In vitro antibacterial activity, agar dilution MIC
[11] = system: STAPHYLOCOCCUS AUREUS NCTC 10649; assay: In vitro antibacterial activity, agar dilution MIC; details: NCTC10649, 24 h
[12] = system: PSEUDOMONAS AERUGINOSA K799/WT; assay: In vitro antibacterial activity, agar dilution MIC; details: P. aeruginosa K799/WT, BHI agar, 35-37° C., 20 to 24 hours
STAPHYLOCOCCUS AUREUS 45 = assay: In vitro antibacterial activity, agar dilution MIC; details: 24 h
[13] = system: PSEUDOMONAS AERUGINOSA BMH10; assay: In vitro antibacterial activity, agar dilution MIC
ESCHERICHIA COLI SS = assay: In vitro antibacterial activity, agar dilution MIC; details: 24 h
ESCHERICHIA COLI KNK 437 = assay: microbe, parasite or virus in culture; details: E. coli KNK 437, BHI agar, 35-37° C., 20 to 24 hours
[14] = system: STAPHYLOCOCCUS AUREUS CMX 553; assay: In vitro antibacterial activity, agar dilution MIC
[15] = system: KLEBSIELLA PNEUMONIAE ATCC 8045; assay: In vitro antibacterial activity, agar dilution MIC; details: ATCC8045, 24 h
EN[…] ATCC 8043 = assay: In vitro antibacterial activity, agar dilution MIC; details: Enterococcus faecium, ATCC8043, 24 h
Protocol: as §1, §2
as §3, with “control. The results of this assay, shown below in Tables 1 and 2, support the conclusion that the compounds of the invention are effective antibacterial agents.” for “control.”

M[…] ATCC 9341 = assay: In vitro antibacterial activity, agar dilution MIC; details: Micrococcus luteus, ATCC9341, 24 h
Protocol: as §1, §2
as §3, with “control. The results of this assay, shown below in Tables 1 and 2, support the conclusion that the compounds of the invention are effective antibacterial agents.” for “control.”

M[…] ATCC 4698 = assay: In vitro antibacterial activity, agar dilution MIC; details: Micrococcus luteus, ATCC4698, 24 h
Protocol: as §1, §2
as §3, with “control. The results of this assay, shown below in Tables 1 and 2, support the conclusion that the compounds of the invention are effective antibacterial agents.” for “control.”

[16] = system: PSEUDOMONAS AERUGINOSA K799/61; assay: In vitro antibacterial activity, agar dilution MIC
Protocol: as §1, §2
as §3, with “control. The results of this assay, shown below in Tables 1 and 2, support the conclusion that the compounds of the invention are effective antibacterial agents.” for “control.”

[17] = system: STREPTOCOCCUS BOVIS A5169; assay: In vitro antibacterial activity, agar dilution MIC; details: 24 h
[18] = system: STAPHYLOCOCCUS AUREUS 642A; assay: In vitro antibacterial activity, agar dilution MIC; details: 24 h

Row | Compound | MIC [3] | MIC (PSEUDOMONAS CEPACIA 296I) | MIC (ESCHERICHIA COLI JUHL) | MIC [5] | MIC [6] | MIC [7] | MIC [8] | MIC (STR[…] 508) | MIC (STR[…] EES61) | MIC [9] | MIC [11] | MIC [12] | MIC (STAPHYLOCOCCUS AUREUS 45) | MIC (ESCHERICHIA COLI SS) | MIC (ESCHERICHIA COLI KNK 437) | MIC [15] | MIC (EN[…] ATCC 8043) | MIC (M[…] ATCC 9341) | MIC (M[…] ATCC 4698) | further results
1 | CC[C@H]1OC(=O)[C@H](C)[C@@H](O[C@H]2C[C@@](C)(OC)[C@@H](O)[C@H](C)O2)[C@H](C)[C@@H](O[C@@H]2O[C@H](C)C[C@H](N(C)C)[C@H]2O)[C@](C)(O)C[C@@H](C)[C@@H](N(C)C)[C@H](C)[C@@H](O)[C@@]1(O)CN(C)C [Compound 18, (9R)-9,21-di-(N,N-dimethylamino)-9-deoxoerythromycin A] | > 100 µg/mL | > 100 µg/mL | 12.5 µg/mL (≈ 15.5 µM) | > 100 µg/mL | > 100 µg/mL | 25 µg/mL (≈ 31 µM) | 1.56 µg/mL (≈ 1.94 µM) | 0.2 µg/mL (≈ 0.248 µM) | 0.1 µg/mL (≈ 0.124 µM) | > 100 µg/mL | 1.56 µg/mL (≈ 1.94 µM) | > 100 µg/mL | 1.56 µg/mL (≈ 1.94 µM) | 0.2 µg/mL (≈ 0.248 µM) | 12.5 µg/mL (≈ 15.5 µM) | 6.2 µg/mL (≈ 7.69 µM) | 0.39 µg/mL (≈ 0.484 µM) | 0.2 µg/mL (≈ 0.248 µM) | 0.78 µg/mL (≈ 0.968 µM) | MIC ([1]; S. epidermidis 3519, BHI agar, 35-37° C., 20 to 24 hours, read-out: MIC): 3.1 µg/mL (≈ 3.85 µM); MIC ([2]; ATCC13048, 24 h): 25 µg/mL (≈ 31 µM); MIC (ESCHERICHIA COLI H560; E. coli H560, BHI agar, 35-37° C., 20 to 24 hours, read-out: MIC): 3.1 µg/mL (≈ 3.85 µM); MIC [4]: 12.5 µg/mL (≈ 15.5 µM); MIC (ESCHERICHIA COLI DC-2; 24 h): 6.2 µg/mL (≈ 7.69 µM); MIC ([10]; 24 h): 25 µg/mL (≈ 31 µM); MIC ([13]; P. aeruginosa BMH10, BHI agar, 35-37° C., 20 to 24 hours, read-out: MIC): 100 µg/mL (≈ 124 µM); MIC ([14]; S. aureus CMX 553, BHI agar, 35-37° C., 20 to 24 hours, read-out: MIC): 3.1 µg/mL (≈ 3.85 µM); MIC ([16]; 24 h): 1.56 µg/mL (≈ 1.94 µM)
2 | CC[C@H]1OC(=O)[C@H](C)[C@@H](O[C@H]2C[C@@](C)(OC)[C@@H](O)[C@H](C)O2)[C@H](C)[C@@H](O[C@@H]2O[C@H](C)C[C@H](N(C)C)[C@H]2O)[C@](C)(O)C[C@@H](C)[C@@H](N)[C@H](C)[C@@H](O)[C@@]1(O)CNCc1ccccc1 [Compound 14, (9R)-9-amino-21-benzylamino-9-deoxo-erythromycin A] | > 100 µg/mL | > 100 µg/mL | 100 µg/mL (≈ 119 µM) | > 100 µg/mL | > 100 µg/mL | 3.1 µg/mL (≈ 3.69 µM) | 3.1 µg/mL (≈ 3.69 µM) | 0.39 µg/mL (≈ 0.464 µM) | 0.2 µg/mL (≈ 0.238 µM) | > 100 µg/mL | 3.1 µg/mL (≈ 3.69 µM) | > 100 µg/mL | 6.2 µg/mL (≈ 7.38 µM) | 0.78 µg/mL (≈ 0.928 µM) | 100 µg/mL (≈ 119 µM) | 50 µg/mL (≈ 59.5 µM) | 3.1 µg/mL (≈ 3.69 µM) | 0.78 µg/mL (≈ 0.928 µM) | 3.1 µg/mL (≈ 3.69 µM) | MIC [17]: 0.2 µg/mL (≈ 0.238 µM); MIC ([1]; 24 h): 1.56 µg/mL (≈ 1.86 µM); MIC ([2]; ATCC13048, E. aerogenes ATCC 13048, BHI agar, 35-37° C., 20 to 24 hours, read-out: MIC): > 100 µg/mL; MIC (ESCHERICHIA COLI H560; 24 h): 25 µg/mL (≈ 29.8 µM); MIC [18]: 6.2 µg/mL (≈ 7.38 µM); MIC (ESCHERICHIA COLI DC-2; E. coli DC-2, BHI agar, 35-37° C., 20 to 24 hours, read-out: MIC): 100 µg/mL (≈ 119 µM); MIC ([10]; S. aureus A5177, BHI agar, 35-37° C., 20 to 24 hours, read-out: MIC): > 100 µg/mL; MIC ([13]; 24 h): 50 µg/mL (≈ 59.5 µM); MIC ([14]; 24 h): 6.2 µg/mL (≈ 7.38 µM); MIC ([16]; P. aeruginosa K799/61, BHI agar, 35-37° C., 20 to 24 hours, read-out: MIC): 25 µg/mL (≈ 29.8 µM)
